Source: patent US20220040280A1, “INHIBITORS AND USES THEREOF” (UNIVERSITY OF CANBERRA, priority 2016, published 2022)

Tests used:
PD-L1 [1] = conditions: CTCs from metastatic breast cancer patients, in all but one patient, FIG. 17
Procedure: (§2) Cells were permeabilised by incubating with 2% Triton X-100 for 20 min. Cells were probed with either rabbit antibodies to LSD1s111p (Merck ABE1462), EGFR (AB2430), MET (ab51067), PD-L1 (sc-50298), goat antibodies to PD-L1 (sc-19091), SC-14033), (sc-19096), mouse antibodies to Cytokeratin (Miltenyi 130-090-866), CSV (Abnova H00007431-M08), vimentin (SC-6260) followed by visualisation with secondary anti mouse Alexa-Fluor 568 (A10037), secondary anti rabbit Alexa-Fluor 488 (A21206) or secondary anti goat Alexa-Fluor 633 (A21082). Cover slips were mounted on glass microscope slides with ProLong Diamond Antifade© reagent (Life Technologies). Antibody staining was localised by confocal laser scanning microscopy. Single 0.5 μm sections were obtained using a Nikon x 60 oil immersion lens on the Nikon C1 plus confocal system running NIS-Elements AR 3.2 software. […] Digital confocal images were analysed using ImageJ software (ImageJ, NIH, Bethesda, Md., USA) to determine the nuclear/cytoplasmic fluorescence ratio (Fn/c) using the equation: Fn/c=(Fn−Fb)/(Fc−Fb), where Fn is nuclear fluorescence, Fc is cytoplasmic fluorescence, and Fb is background fluorescence or the Total Nuclear Fluorescence (TNFI), the Total Cytoplasmic Fluorescence (TCFI) or Total cell fluorescence. […] Florescence intensity was also measured in a minimum of n=10 cells for each sample set. […]

PD-L1 [2] = assay: Confocal microscopy of PD-L1 in xenografted MDA-MB-231 cells; format: in vivo, mouse; conditions: xenograft MDA-MB-231 cells; Abraxane 60 mg/kg, Phenelzine 41 mg/kg, FIG. 9
Text: (§1) Cells were probed with either rabbit antibodies to LSD1s111p (Merck ABE1462), EGFR (AB2430), MET (ab51067), PD-L1 (sc-50298), goat antibodies to PD-L1 (sc-19091), SC-14033), (sc-19096), mouse antibodies to Cytokeratin (Miltenyi 130-090-866), CSV (Abnova H00007431-M08), vimentin (SC-6260) followed by visualisation with secondary anti mouse Alexa-Fluor 568 (A10037), secondary anti rabbit Alexa-Fluor 488 (A21206) or secondary anti goat Alexa-Fluor 633 (A21082).

LSD1s111p [3] = target: T1, LSD1s111p (Homo sapiens, UniProt O60341); assay: Confocal microscopy of LSD1s111p in patient circulating tumor cells; format: cell-based; conditions: CTCs from two metastatic breast cancer patient liquid biopsies, FIG. 16
T1 construct: endogenous in cells; host or cells: circulating tumor cells from metastatic breast cancer patient blood
Text: as §1

[4] = tested on: cell surface vimentin (CSV); assay: Confocal microscopy of cell surface vimentin in xenografted MDA-MB-231 cells; format: in vivo, mouse; conditions: xenograft MDA-MB-231 cells; Abraxane 60 mg/kg, Phenelzine 41 mg/kg, FIG. 10
Text: as §1

SNAIL [5] = conditions: CTCs from metastatic breast cancer patients, in all but one patient, FIG. 17
Procedure: as §2

EGFR = assay: Confocal microscopy of EGFR in xenografted MDA-MB-231 cells; format: in vivo, mouse; conditions: xenograft MDA-MB-231 cells; Abraxane 60 mg/kg, Docetaxel 10 mg/kg, Phenelzine 41 mg/kg; relative to vehicle control
Text: as §1

PD-L2 = conditions: CTCs from two metastatic breast cancer patient liquid biopsies, FIG. 16
Procedure: as §2

cytokeratin [6] = assay: Confocal microscopy of cytokeratin in xenografted MDA-MB-231 cells; format: in vivo, mouse; conditions: xenograft MDA-MB-231 cells; Abraxane 60 mg/kg, Phenelzine 41 mg/kg, FIG. 9
Text: as §1

LSD1s111p [7] = assay: Confocal microscopy of LSD1s111p in xenografted MDA-MB-231 cells; format: in vivo, mouse; conditions: xenograft MDA-MB-231 cells; Abraxane 60 mg/kg, Docetaxel 10 mg/kg, Phenelzine 41 mg/kg; relative to vehicle control
Text: as §1
The nuclear intensity of LSD1s111p was measured using confocal laser scanning microscopy in xenografted MDA-MB-231 cells treated with vehicle alone or Abraxene (60 mg/kg) or Docetaxel (10 mg/kg). Cells were fixed with 3.7% formaldehyde and permeabilized with 2% Triton-X-100, and then probed with a primary rabbit antibody to LSD1s111p, followed by the corresponding secondary antibody conjugated to Alexa-Fluor 488. Total nuclear fluorescence (TNFI) values for xenografted MDA-MB-231 cells were calculated. Data shown represents the mean±SE for at least 20 individual cells.

cytokeratin [8] = conditions: CTCs from two metastatic breast cancer patient liquid biopsies, FIG. 16
Procedure: as §2

SNAIL [9] = assay: Confocal microscopy of SNAIL in xenografted MDA-MB-231 cells; format: in vivo, mouse; conditions: xenograft MDA-MB-231 cells; Abraxane 60 mg/kg, Docetaxel 10 mg/kg; relative to vehicle
Text: as §1

MET = assay: Confocal microscopy of MET in xenografted MDA-MB-231 cells; format: in vivo, mouse; conditions: xenograft MDA-MB-231 cells; Abraxane 60 mg/kg, Docetaxel 10 mg/kg, FIG. 11
Text: as §1

Row | Compound | PD-L1 expression (total cell fluorescence) (PD-L1 [1]) | PD-L1 expression in the cytoplasm (TCFI) (PD-L1 [2]) | PD-L1 expression in the nucleus (TNFI) (PD-L1 [2]) | PD-L1 nuclear bias (Fn/c) (PD-L1 [2]) | total PD-L1 expression (PD-L1 [2]) | expression of LSD1s111p (TCFI) (LSD1s111p [3]) | cell surface vimentin (CSV) cytoplasmic expression (TCFI) [4] | SNAIL expression (total cell fluorescence) (SNAIL [5]) | EGFR nuclear expression (TNFI) (EGFR) | expression of PD-L2 (TCFI) (PD-L2) | cytokeratin expression (cytokeratin [6]) | LSD1s111p expression, nuclear fluorescent signal (TNFI) (LSD1s111p [7]) | expression of cytokeratin (TCFI) (cytokeratin [8]) | SNAIL nuclear fluorescent signal (TNFI) (SNAIL [9]) | MET nuclear expression (TNFI) (MET)
1 | NNCCc1ccccc1 [Phenelzine, (+)-2-phenylethylhydrazine] | significant knockdown | significantly abrogated | significantly abrogated | higher | significantly reduced | significant knockdown | abrogated | significant knockdown | inhibitory effect | significant knockdown | abrogated | inhibitory effect | significant knockdown |  | 
2 | CC(=O)O[C@@]12CO[C@@H]1C[C@H](O)[C@@]1(C)C(=O)[C@H](O)C3=C(C)[C@@H](OC(=O)[C@H](O)[C@@H](NC(=O)OC(C)(C)C)c4ccccc4)C[C@@](O)([C@@H](OC(=O)c4ccccc4)[C@H]21)C3(C)C [Docetaxel] |  |  |  |  |  |  |  |  | significantly increased |  |  | significantly increased |  | significantly increased | significantly increased
